“Also recorded” adds a separate entry of the source. Positions of bridges follow the written chain, without caps; N, C: chain ends. Residues, ends and D or L forms follow the SMILES beside them. No end group written: not given here.

The subject of the data set is nasal cavity, the affected site. Briefly: Effect on nose of cyclic peptides in which amino acid was substituted. The following applies: for irritation upon nasal application: nasal application once/day.

Turning to `CC[C@H](C)[C@@H]1NC(=O)[C@H](CCCNC(=N)N)NC(=O)[C@H](CC(=O)O)NC(=O)[C@H](CC(C)C)NC(=O)[C@H](CCCCN)NC(=O)[C@H](CC(C)C)NC(=O)CNC(=O)[C@H](Cc2ccccc2)NC(=O)[C@@H](N)CSSC[C@@H](C(=O)O)NC(=O)CNC(=O)[C@H](Cc2ccccc2)NC(=O)CNC(=O)[C@H](CO)NC(=O)[C@H](CCSC)NC(=O)[C@H](CO)NC(=O)CNC1=O` [SEQ ID NO: 21] (H-CFGLKLDRIGSMSGFGC-OH; disulfide 1-17; N-terminus and C-terminus assumed), the “irritation upon nasal application” value (Formulation C = 30 μg/ml) is reported as “upon blowing. There was no irritation upon nasal”.
Same read-out and setting: the value for `CC[C@H](C)[C@@H]1NC(=O)CNC(=O)[C@H](CO)NC(=O)[C@H](CCSC)NC(=O)[C@H](CO)NC(=O)CNC(=O)[C@H]([C@@H](C)CC)NC(=O)[C@H](CCCNC(=N)N)NC(=O)[C@H](CC(=O)O)NC(=O)[C@H](CC(C)C)NC(=O)[C@H](CCCCN)NC(=O)[C@H](CC(C)C)NC(=O)CNC(=O)[C@H](Cc2ccccc2)NC(=O)[C@@H](N)CSSC[C@@H](C(=O)O)NC(=O)CNC1=O` [SEQ ID NO: 19] (H-CFGLKLDRIGSMSGIGC-OH; disulfide 1-17; N-terminus and C-terminus assumed) was “There was no irritation upon nasal application”; that for `CC[C@H](C)[C@@H]1NC(=O)CNC(=O)[C@H]([C@@H](C)O)NC(=O)[C@H](CCSC)NC(=O)[C@H](CO)NC(=O)CNC(=O)[C@H]([C@@H](C)CC)NC(=O)[C@H](CCCNC(=N)N)NC(=O)[C@H](CC(=O)O)NC(=O)[C@H](CC(C)C)NC(=O)[C@H](CCCCN)NC(=O)[C@H](CC(C)C)NC(=O)CNC(=O)[C@H](Cc2ccccc2)NC(=O)[C@@H](N)CSSC[C@@H](C(=O)O)NC(=O)CNC1=O` [SEQ ID NO: 41] (H-CFGLKLDRIGSMTGIGC-OH; disulfide 1-17; N-terminus and C-terminus assumed) was “There was no irritation upon nasal application”; that for `CC[C@H](C)[C@@H]1NC(=O)CNC(=O)[C@H]([C@@H](C)O)NC(=O)[C@H](CCSC)NC(=O)[C@H](CO)NC(=O)CNC(=O)[C@H]([C@@H](C)CC)NC(=O)[C@H](CCCNC(=N)N)NC(=O)[C@H](CC(=O)O)NC(=O)[C@H](CCSC)NC(=O)[C@H](CCCCN)NC(=O)[C@H](CC(C)C)NC(=O)CNC(=O)[C@H](Cc2ccccc2)NC(=O)[C@@H](N)CSSC[C@@H](C(=O)O)NC(=O)CNC1=O` [SEQ ID NO: 53] (H-CFGLKMDRIGSMTGIGC-OH; disulfide 1-17; N-terminus and C-terminus assumed) was “upon blowing. There was no irritation upon nasal”.
As for “SEEQ ID NO: 3 (CFGLKLDRIGSMSGLGC; disulfide 1-17)”, the “Post-treatment diagnostic skin impression” value (nasal application for comparison of right and left in one subject, Formulation A = 1 μg/ml, once/day) was “After 3 min, nasal discharge did not stop; also recorded: After 2 min, nose was not clear”.
For the compound `CC[C@H](C)[C@@H]1NC(=O)[C@H](CCCNC(=N)N)NC(=O)[C@H](CC(=O)O)NC(=O)[C@H](CC(C)C)NC(=O)[C@H](CCCCN)NC(=O)[C@H](CC(C)C)NC(=O)CNC(=O)[C@H](Cc2ccccc2)NC(=O)[C@@H](N)CSSC[C@@H](C(=O)O)NC(=O)CNC(=O)[C@H](CC(C)C)NC(=O)CNC(=O)[C@H](CO)NC(=O)[C@H](CCSC)NC(=O)[C@H](C)NC(=O)CNC1=O` [SEQ ID NO: 11] (H-CFGLKLDRIGAMSGLGC-OH; disulfide 1-17; N-terminus and C-terminus assumed), the “irritation upon nasal application” value (Formulation C = 30 μg/ml) is “There was no irritation upon nasal application”.
In the case of `CC[C@H](C)[C@@H]1NC(=O)[C@H](CCCNC(=N)N)NC(=O)[C@H](CC(=O)O)NC(=O)[C@H](CC(C)C)NC(=O)[C@H](CCCCN)NC(=O)[C@H](CC(C)C)NC(=O)[C@H](C)NC(=O)[C@H](Cc2ccccc2)NC(=O)[C@@H](N)CSSC[C@@H](C(=O)O)NC(=O)CNC(=O)[C@H](CC(C)C)NC(=O)CNC(=O)[C@H](CO)NC(=O)[C@H](CCSC)NC(=O)[C@H]([C@@H](C)O)NC(=O)CNC1=O` [SEQ ID NO: 33] (H-CFALKLDRIGTMSGLGC-OH; disulfide 1-17; N-terminus and C-terminus assumed), the “irritation upon nasal application” value (Formulation C = 30 μg/ml) was “There was no irritation upon nasal application”.
For `CC[C@H](C)[C@@H]1NC(=O)[C@H](CCCNC(=N)N)NC(=O)[C@H](CC(=O)O)NC(=O)[C@H](CC(C)C)NC(=O)[C@H](CCCCN)NC(=O)[C@H](CC(C)C)NC(=O)CNC(=O)[C@H](Cc2ccccc2)NC(=O)[C@@H](N)CSSC[C@@H](C(=O)O)NC(=O)CNC(=O)[C@H](CCSC)NC(=O)CNC(=O)[C@H](CO)NC(=O)[C@H](CCSC)NC(=O)[C@H](CO)NC(=O)CNC1=O` [SEQ ID NO: 20] (H-CFGLKLDRIGSMSGMGC-OH; disulfide 1-17; N-terminus and C-terminus assumed), the “irritation upon nasal application” value (Formulation C = 30 μg/ml) is listed as “There was no irritation upon nasal application”.
In the case of `CC[C@H](C)[C@@H]1NC(=O)[C@H](CCCNC(=N)N)NC(=O)[C@H](CC(=O)O)NC(=O)[C@H](CC(C)C)NC(=O)[C@H](CCCCN)NC(=O)[C@H](CC(C)C)NC(=O)[C@H](C)NC(=O)[C@H](Cc2ccccc2)NC(=O)[C@@H](N)CSSC[C@@H](C(=O)O)NC(=O)CNC(=O)[C@H](CC(C)C)NC(=O)CNC(=O)[C@H]([C@@H](C)O)NC(=O)[C@H](CCSC)NC(=O)[C@H](CO)NC(=O)CNC1=O` [SEQ ID NO: 34] (H-CFALKLDRIGSMTGLGC-OH; disulfide 1-17; N-terminus and C-terminus assumed), the “irritation upon nasal application” value (Formulation B = 5 μg/ml) is listed as “There was no irritation upon nasal application”.
Regarding `CC[C@H](C)[C@@H]1NC(=O)[C@H](CCCNC(=N)N)NC(=O)[C@H](CC(=O)O)NC(=O)[C@H](CC(C)C)NC(=O)[C@H](CCCCN)NC(=O)[C@H](CC(C)C)NC(=O)CNC(=O)[C@H](Cc2ccccc2)NC(=O)[C@@H](N)CSSC[C@@H](C(=O)O)NC(=O)CNC(=O)[C@H](C(C)C)NC(=O)CNC(=O)[C@H](CO)NC(=O)[C@H](CCSC)NC(=O)[C@H](CO)NC(=O)CNC1=O` [SEQ ID NO: 18] (H-CFGLKLDRIGSMSGVGC-OH; disulfide 1-17; N-terminus and C-terminus assumed), the “irritation upon nasal application” value (Formulation C = 30 μg/ml) is given as “There was no irritation upon nasal application”.
For the compound `CC[C@H](C)[C@@H]1NC(=O)CNC(=O)[C@H](CO)NC(=O)[C@H](CCSC)NC(=O)[C@H]([C@@H](C)O)NC(=O)CNC(=O)[C@H]([C@@H](C)CC)NC(=O)[C@H](CCCNC(=N)N)NC(=O)[C@H](CC(=O)O)NC(=O)[C@H](CCSC)NC(=O)[C@H](CCCCN)NC(=O)[C@H](CC(C)C)NC(=O)[C@H](C)NC(=O)[C@H](Cc2ccccc2)NC(=O)[C@@H](N)CSSC[C@@H](C(=O)O)NC(=O)CNC1=O` [SEQ ID NO: 58] (H-CFALKMDRIGTMSGIGC-OH; disulfide 1-17; N-terminus and C-terminus assumed), the “irritation upon nasal application” value (Formulation B = 5 μg/ml) is recorded as “There was no irritation upon nasal application”.
As for `CC[C@H](C)[C@@H]1NC(=O)[C@H](CCCNC(=N)N)NC(=O)[C@H](CC(=O)O)NC(=O)[C@H](CC(C)C)NC(=O)[C@H](CCCCN)NC(=O)[C@H](CC(C)C)NC(=O)CNC(=O)[C@H](Cc2ccccc2)NC(=O)[C@@H](N)CSSC[C@@H](C(=O)O)NC(=O)CNC(=O)[C@H](CC(C)C)NC(=O)CNC(=O)[C@H](CO)NC(=O)[C@H](CCSC)NC(=O)[C@H]([C@@H](C)O)NC(=O)CNC1=O` [SEQ ID NO: 10] (H-CFGLKLDRIGTMSGLGC-OH; disulfide 1-17; N-terminus and C-terminus assumed), the “irritation upon nasal application” value (Formulation C = 30 μg/ml) is recorded as “There was no irritation upon nasal application”.

Values taken from US20240376153A1, “CNP CYCLIC PEPTIDE, AND MEDICINE, EXTERNAL PREPARATION AND COSMETIC EACH CONTAINING SAID CYCLIC PEPTIDE” (Igisu Co., Ltd., priority 2015, published 2024).
